Experimental data reported in ChEMBL document CHEMBL1201862, “PubChem BioAssay data set” (2004).
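The compound was tested at five concentrations on cells cultured in 96-well plates, with a 48-hour exposure period. GI50 is the concentration that inhibits growth by half.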 The source made the active and inactive calls. Rule as the data show it: active = GI50 up to about 1.1 µM and inactive = higher.

Legend:
Assay in all cases: NCI tumour cell line growth inhibition, 48 h
A498 = test system: A498
MCF7 = test system: MCF7
UACC-257 = test system: UACC-257
U-251 = test system: U-251
MDA-MB-435 = test system: MDA-MB-435
NCI-H460 = test system: NCI-H460
COLO 205 = test system: COLO 205
HCT-116 = test system: HCT-116
EKVX = test system: EKVX
RXF 393 = test system: RXF 393
K562 = test system: K562
786-0 = test system: 786-0
HL-60 = test system: HL-60
OVCAR-4 = test system: OVCAR-4
UACC-62 = test system: UACC-62
NCI-H522 = test system: NCI-H522
MDA-MB-231 = test system: MDA-MB-231
SW-620 = test system: SW-620
TK-10 = test system: TK-10
SNB-75 = test system: SNB-75

Structure (SMILES)	GI50 (A498)	GI50 (MCF7)	GI50 (UACC-257)	GI50 (U-251)	GI50 (MDA-MB-435)	GI50 (NCI-H460)	GI50 (COLO 205)	GI50 (HCT-116)	GI50 (EKVX)	GI50 (RXF 393)	GI50 (K562)	GI50 (786-0)	GI50 (HL-60)	GI50 (OVCAR-4)	GI50 (UACC-62)	GI50 (NCI-H522)	GI50 (MDA-MB-231)	GI50 (SW-620)	GI50 (TK-10)	GI50 (SNB-75)
COc1cc(OC)cc(Oc2nc3ccccc3nc2C(F)(F)F)c1	22.9 µM (inactive)	> 100 µM (inactive)	> 100 µM (inactive)	27.2 µM (inactive)	3.41 µM (inactive)	> 100 µM (inactive)	> 100 µM (inactive)	> 100 µM (inactive)	> 100 µM (inactive)	19.5 µM (inactive)	9.25 µM (inactive)	> 100 µM (inactive)	22.3 µM (inactive)	> 100 µM (inactive)	> 100 µM (inactive)	> 100 µM (inactive)	14.7 µM (inactive)	20.4 µM (inactive)	> 100 µM (inactive)	21.9 µM (inactive)
Cc1cc(-n2nnc(C(=O)O)c2-c2ccccc2)c2ccc(Cl)cc2n1	> 100 µM (inactive)	> 100 µM (inactive)	> 100 µM (inactive)	> 100 µM (inactive)	> 100 µM (inactive)	> 100 µM (inactive)	> 100 µM (inactive)	> 100 µM (inactive)	> 100 µM (inactive)	> 100 µM (inactive)	58.1 µM (inactive)	> 100 µM (inactive)	> 100 µM (inactive)	> 100 µM (inactive)	> 100 µM (inactive)	> 100 µM (inactive)	> 100 µM (inactive)	> 100 µM (inactive)	> 100 µM (inactive)	> 100 µM (inactive)
Nc1nc(-c2ccccc2)c(Cl)c(-c2cc(Cl)ccc2O)n1	34.6 µM (inactive)	2.04 µM (inactive)	> 100 µM (inactive)	15.2 µM (inactive)	> 100 µM (inactive)	17 µM (inactive)	> 100 µM (inactive)	13.4 µM (inactive)	28.1 µM (inactive)	13.8 µM (inactive)	> 46.5 µM (inactive)	24.4 µM (inactive)	> 42.9 µM (inactive)	15.3 µM (inactive)	50.8 µM (inactive)	11.6 µM (inactive)	48.5 µM (inactive)	44.3 µM (inactive)	15.5 µM (inactive)	13.7 µM (inactive)
CCCCCCCCOc1ccc(/C=C/C2=[N+](CCO)CCO2)cc1	2.9 µM (inactive)	4.65 µM (inactive)	3.38 µM (inactive)	2.86 µM (inactive)	3.52 µM (inactive)	3.07 µM (inactive)	2.42 µM (inactive)	2.7 µM (inactive)	3.94 µM (inactive)	1.8 µM (inactive)	2.07 µM (inactive)	3.72 µM (inactive)	2.62 µM (inactive)	3.6 µM (inactive)	4.28 µM (inactive)	2.02 µM (inactive)	3.78 µM (inactive)	2.43 µM (inactive)	3.36 µM (inactive)	2.67 µM (inactive)
N#CC1(C2SCC[S+]2[O-])C2=C(C(=O)c3ccccc3C2=O)N2CCCC21 (stereo not given)	4.07 µM (inactive)	1.63 µM (inactive)	1.36 µM (inactive)	3.4 µM (inactive)	0.497 µM (active)	2.32 µM (inactive)	2.24 µM (inactive)	2 µM (inactive)	4.8 µM (inactive)	0.998 µM (active)	3.38 µM (inactive)	4.21 µM (inactive)	1.55 µM (inactive)	1.7 µM (inactive)	2.85 µM (inactive)	2.11 µM (inactive)	2.17 µM (inactive)	2.13 µM (inactive)	8.77 µM (inactive)	3.23 µM (inactive)
